Source: patent US11390900B2, “Antimicrobial cartridges and processes for multiplexed antimicrobial susceptibility testing” (priority 2018, dated 2022)
Values after ≈ are worked out from the molar mass of the structure shown. Where two headings read alike, the source gives them in different places.

Tests used:
E. faecalis 29212 = conditions: MIC range, cited from earlier work
E. coli 25922 = conditions: MIC range, E. coli 25922, Gram negative panel; cited from earlier work
S. aureus 29213 = conditions: MIC range, cited from earlier work
patient sample microbes [1] = conditions: antimicrobial panel 2, MIC range; cited from earlier work
patient sample microbes [2] = experiment: AST MIC results for antimicrobial panel 2 (384-well panel from Master Plate vs 96-well panel); type: cell-based; conditions: for MICs obtained from panel made from Master Plate: antimicrobial panel 2, 384 well patient cartridge; for MICs obtained from 96-well Antibiotic Panel: antimicrobial panel 2, standard 96 well AST assay plate
From the text: (§1) An assay setup comprises preparation of patient (target) cartridge by dispensing antimicrobials were from the master cartridge or intermediate serial dilution cartridges into one or more 384 reservoir patient cartridge, each antimicrobial in about 7 serial dilutions in triplicate, and covering the dynamic range of each antimicrobial that is known to be effective and therefore should be reported. The dilution range included the expected minimum inhibitory concentration (MIC) for each antimicrobial. But most importantly, dilution ranges, that is, antimicrobial concentrations beyond the range known to be effective are included in the patient cartridge as per the present invention.
(§2) The remaining reservoirs of the 384 well patient cartridge are utilized for setting up test controls: a no-antimicrobial control (negative control) was included for each antimicrobial compound; and a positive control was included for each antimicrobial set, where a microorganism that is not susceptible to the antimicrobial was added to the well. Each control set was also dispensed at least in duplicate per 384 well cartridge. Additional test controls may be included as deemed necessary by one of skill in the art. Equal amount of a patient sample was dispensed to each of the wells in the cartridge, except in the wells designated for no-sample control, if included. The patient cartridge was ready for determination of susceptibility of microbes from the patient sample to the twelve antimicrobials at the range of concentrations applied, simultaneously. Multiple such plates can be set up in parallel for testing samples from multiple patients, each patient sample per plate. An AST assay was performed on the prepared patient cartridges.
(§3) First, three master plates are loaded by the user onto chilled plate holders (set to 4° C.). These consist of one Broad Spectrum, one Gram-Positive and one Gram-Negative antibiotic plate. Next the bulk reagents and pipette tips are loaded on tube rack. Master and bulk reagent pipette tips and sample dilution tray are reloaded every 12 samples. For every set of tests, up to four Patient Samples in tubes and up to four 384-well Target Plates (Patient plate) are loaded.
(§4) Antibiotics are transferred from Broad Spectrum Master Plate to Target Plate(s). Antibiotics are “stamped” according to FIG. 10A-B. The inoculator tips should be placed back in the same position of the Broad Spectrum Tip Box for use on subsequent target plates, but should only be used for same antibiotics to avoid cross contamination.
(§5) Antimicrobials are transferred from Gram-Positive OR Gram-Negative Master Plate to Target Plate(s) and the antibiotics are “stamped” according to FIG. 11A-B. The inoculator should place tips back in the same position of the correct tip box for use on subsequent target plates. Good care is taken such that any cross contamination is prevented.
(§6) Using new tips from the Sample Tip Box, 50 μL of diluted patient sample are transferred into Target Plate according to Table Four, this is done with a “jet dispense” to avoid cross contamination. After the Patient Sample has been transferred to each well on the Target Plate, the tips should be disposed of to avoid cross contamination. The above steps are repeated for each additional Patient Sample and Target Plate.
(§7) Shown in Table 6 and Table 7, MIC results for antimicrobial panels 1 and 2 respectively using a master cartridge format and a 384 well patient cartridge (column 3) agrees reliably with that run by standard 96 well AST assay plate (right hand column).

[3] = test system: clinical isolate of S. aureus; experiment: Broth microdilution reference method MIC; type: cell-based; conditions: Staphylococcus aureus, read-out: MICs obtained from the broth microdilution reference method
Description: The antibiotics shown are vancomycin, daptomycin, ceftaroline and levofloxacin, of which the MICs obtained from the broth microdilution reference method for this strain were 0.5, 0.25, 0.12, and 0.25 μg/ml, respectively. A clinical isolate of S. aureus was used. Data represents the TRF signal in RFUs. Graphs in the top row contain data from 384-well plates. Graphs in the bottom row contain data from 96-well plates.

patient sample microbes [4] = experiment: AST MIC results for antimicrobial panel 1 (384-well panel from Master Plate vs 96-well panel); type: cell-based; conditions: for MICs obtained from panel made from Master Plate: antimicrobial panel 1, 384 well patient cartridge; for MICs obtained from 96-well Antibiotic Panel: antimicrobial panel 1, standard 96 well AST assay plate
From the text: as §1, §2, §3, §4, §5, §6, §7

K. pneumoniae 700603 = conditions: MIC range, K. pneumoniae 700603, Gram negative panel; cited from earlier work
patient sample microbes [5] = conditions: antimicrobial panel 1, MIC range; cited from earlier work
[6] = E. faecalis 29212, Gram positive panel
[7] = S. aureus 29213, Gram positive panel
[8] = S. aureus 29213, Gram negative panel
[9] = E. faecalis 29212, Gram negative panel

CN(C)[C@@H]1C(O)=C(C(N)=O)C(=O)[C@@]2(O)C(O)=C3C(=O)c4c(O)c(NC(=O)CN5CCCC5)cc(F)c4C[C@H]3C[C@@H]12 [Eravacycline]
CLSI-Defined QC Range (E. faecalis 29212; [6]): 0.016 to 0.06 µg/mL
CLSI-Defined QC Range (E. coli 25922): 0.03 to 0.12 µg/mL

CC(=O)NC[C@H]1CN(c2ccc(N3CCOCC3)c(F)c2)C(=O)O1 [Linezolid]
CLSI-Defined QC Range (S. aureus 29213; [7]): 1 to 4 µg/mL
Quality Control Range (patient sample microbes [1]): 1-4
MICs obtained from panel made from Master Plate (patient sample microbes [2]): 2 µg/mL
MICs obtained from 96-well Antibiotic Panel (patient sample microbes [2]): 2 µg/mL

CO[C@H]1/C=C/O[C@@]2(C)Oc3c(C)c(O)c4c(O)c(c(/C=N/N5CCN(C)CC5)c(O)c4c3C2=O)NC(=O)/C(C)=C\C=C\[C@H](C)[C@H](O)[C@@H](C)[C@@H](O)[C@@H](C)[C@H](OC(C)=O)[C@@H]1C [Rifampin]
CLSI-Defined QC Range (E. faecalis 29212; [6]): 0.5 to 4 µg/mL
Quality Control Range (patient sample microbes [1]): 0.004-0.015
MICs obtained from panel made from Master Plate (patient sample microbes [2]): ≤ 0.25 µg/mL
MICs obtained from 96-well Antibiotic Panel (patient sample microbes [2]): 0.004 µg/mL

CCCCCCCCCC(=O)N[C@@H](Cc1c[nH]c2ccccc12)C(=O)N[C@H](CC(N)=O)C(=O)N[C@@H](CC(=O)O)C(=O)N[C@@H]1C(=O)NCC(=O)N[C@@H](CCCN)C(=O)N[C@@H](CC(=O)O)C(=O)N[C@H](C)C(=O)N[C@@H](CC(=O)O)C(=O)NCC(=O)N[C@H](CO)C(=O)N[C@@H]([C@H](C)CC(=O)O)C(=O)N[C@@H](CC(=O)c2ccccc2N)C(=O)O[C@@H]1C [Daptomycin]
CLSI-Defined QC Range (E. faecalis 29212; [6]): 1 to 4 µg/mL
MIC ([3]; clinical isolate of S. aureus): 0.25 µg/mL (≈ 0.154 µM)

Cn1nnc(-c2ccc(-c3ccc(N4C[C@H](CO)OC4=O)cc3F)cn2)n1 [Tedizolid]
Quality Control Range (patient sample microbes [1]): 0.25-1
MICs obtained from panel made from Master Plate (patient sample microbes [2]): 0.25 µg/mL
MICs obtained from 96-well Antibiotic Panel (patient sample microbes [2]): 0.5 µg/mL

Cc1onc(-c2ccccc2)c1C(=O)N[C@@H]1C(=O)N2[C@@H]1SC(C)(C)[C@@H]2C(=O)O [Oxacillin]
CLSI-Defined QC Range (S. aureus 29213; [7]): 0.12 to 0.5 µg/mL
Quality Control Range (patient sample microbes [1]): 0.12-0.5
MICs obtained from panel made from Master Plate (patient sample microbes [2]): 0.5 µg/mL
MICs obtained from 96-well Antibiotic Panel (patient sample microbes [2]): 0.5 µg/mL

CO/N=C(\C(=O)N[C@@H]1C(=O)N2C(C(=O)O)=C(COC(N)=O)CS[C@H]12)c1ccco1 [Cefuroxime]
CLSI-Defined QC Range (E. coli 25922): 2 to 8 µg/mL

CN[C@H](CC(C)C)C(=O)N[C@H]1C(=O)N[C@@H](CC(N)=O)C(=O)N[C@H]2C(=O)N[C@H]3C(=O)N[C@H](C(=O)N[C@H](C(=O)O)c4cc(O)cc(O)c4-c4cc3ccc4O)[C@H](O)c3ccc(c(Cl)c3)Oc3cc2cc(c3O[C@@H]2O[C@H](CO)[C@@H](O)[C@H](O)[C@H]2O[C@H]2C[C@](C)(N)[C@H](O)[C@H](C)O2)Oc2ccc(cc2Cl)[C@H]1O [Vancomycin]
CLSI-Defined QC Range (S. aureus 29213; [7]): 0.5 to 2 µg/mL
MIC [3]: 0.5 µg/mL (≈ 0.345 µM)

C[C@H]1COc2c(N3CCN(C)CC3)c(F)cc3c(=O)c(C(=O)O)cn1c23 [Levofloxacin]
MIC ([3]; clinical isolate of S. aureus): 0.25 µg/mL (≈ 0.692 µM)
MICs obtained from panel made from Master Plate (patient sample microbes [4]): ≤ 0.25 µg/mL
MICs obtained from 96-well Antibiotic Panel (patient sample microbes [4]): ≤ 0.06 µg/mL
MICs obtained from panel made from Master Plate (patient sample microbes [2]): ≤ 0.25 µg/mL
MICs obtained from 96-well Antibiotic Panel (patient sample microbes [2]): 0.25 µg/mL

CC1(C)S[C@@H]2[C@H](NC(=O)[C@H](N)c3ccc(O)cc3)C(=O)N2[C@H]1C(=O)O [Amoxicillin (alone), Amoxicillin]
CLSI-Defined QC Range (K. pneumoniae 700603): >128 µg/mL

Nc1nc(-n2cc(C(=O)O)c(=O)c3cc(F)c(N4CC(O)C4)c(Cl)c32)c(F)cc1F [Delafloxacin]
CLSI-Defined QC Range (E. faecalis 29212; [6]): 0.016 to 0.12 µg/mL

CCO/N=C(\C(=O)N[C@@H]1C(=O)N2C(C(=O)[O-])=C(Sc3nc(-c4cc[n+](C)cc4)cs3)CS[C@H]12)c1nsc(N)n1 [Ceftaroline]
MIC ([3]; clinical isolate of S. aureus): 0.12 µg/mL (≈ 0.198 µM)
MICs obtained from panel made from Master Plate (patient sample microbes [2]): 0.5 µg/mL
MICs obtained from 96-well Antibiotic Panel (patient sample microbes [2]): 0.25 µg/mL

CO/N=C(\C(=O)N[C@@H]1C(=O)N2C(C(=O)O)=C(COC(C)=O)CS[C@H]12)c1csc(N)n1 [Cefotaxime]
CLSI-Defined QC Range (S. aureus 29213; [8]): 1 to 4 µg/mL

C[C@H]1[C@H](NC(=O)/C(=N\OC(C)(C)C(=O)O)c2csc(N)n2)C(=O)N1S(=O)(=O)O [Aztreonam]
CLSI-Defined QC Range (E. coli 25922): 0.06 to 0.25 µg/mL
CLSI-Defined QC Range (K. pneumoniae 700603): 8 to 64 µg/mL

CC[C@H]1OC(=O)[C@H](C)[C@@H](O[C@H]2C[C@@](C)(OC)[C@@H](O)[C@H](C)O2)[C@H](C)[C@@H](O[C@@H]2O[C@H](C)C[C@H](N(C)C)[C@H]2O)[C@](C)(O)C[C@@H](C)CN(C)[C@H](C)[C@@H](O)[C@]1(C)O [Azithromycin]
CLSI-Defined QC Range (S. aureus 29213; [7]): 0.5 to 2 µg/mL

Penicillin
CLSI-Defined QC Range (S. aureus 29213; [7]): 0.25 to 2 µg/mL

CO/N=C(\C(=O)N[C@@H]1C(=O)N2C(C(=O)[O-])=C(C[N+]3(C)CCCC3)CS[C@H]12)c1csc(N)n1 [Cefepime]
CLSI-Defined QC Range (S. aureus 29213; [8]): 1 to 4 µg/mL
Quality Control Range (patient sample microbes [5]): 0.015-0.12
MICs obtained from panel made from Master Plate (patient sample microbes [4]): ≤ 0.25 µg/mL
MICs obtained from 96-well Antibiotic Panel (patient sample microbes [4]): ≤ 0.03 µg/mL

Cc1nnc(SCC2=C(C(=O)O)N3C(=O)[C@@H](NC(=O)Cn4cnnn4)[C@H]3SC2)s1 [Cefazolin]
CLSI-Defined QC Range (E. coli 25922): 1 to 4 µg/mL

COc1cc(Cc2cnc(N)nc2N)cc(OC)c1OC [Trimethoprim]
CLSI-Defined QC Range (S. aureus 29213; [7]): 1 to 4 µg/mL

CO/N=C(\C(=O)N[C@@H]1C(=O)N2C(C(=O)O)=C(CSc3nc(=O)c(=O)[nH]n3C)CS[C@H]12)c1csc(N)n1 [Ceftriaxone]
CLSI-Defined QC Range (S. aureus 29213; [8]): 1 to 8 µg/mL
Quality Control Range (patient sample microbes [5]): 0.03-0.12
Quality Control Range (patient sample microbes [1]): 1-8
MICs obtained from panel made from Master Plate (patient sample microbes [4]): ≤ 0.125 µg/mL
MICs obtained from 96-well Antibiotic Panel (patient sample microbes [4]): ≤ 0.12 µg/mL
MICs obtained from panel made from Master Plate (patient sample microbes [2]): 2 µg/mL
MICs obtained from 96-well Antibiotic Panel (patient sample microbes [2]): 4 µg/mL

C[C@@H](O)[C@H]1C(=O)N2C(C(=O)O)=C(S[C@@H]3CN[C@H](C(=O)N(C)C)C3)[C@H](C)[C@H]12 [Meropenem]
CLSI-Defined QC Range (E. faecalis 29212; [9]): 2 to 8 µg/mL

C[C@@H](O)[C@H]1C(=O)N2C(C(=O)O)=C(S[C@@H]3CN[C@H](C(=O)Nc4cccc(C(=O)O)c4)C3)[C@H](C)[C@H]12 [Ertapenem]
CLSI-Defined QC Range (S. aureus 29213; [8]): 0.06 to 0.25 µg/mL

NCC[C@H](O)C(=O)N[C@@H]1C[C@H](N)[C@@H](O[C@H]2O[C@H](CN)[C@@H](O)[C@H](O)[C@H]2O)[C@H](O)[C@H]1O[C@H]1O[C@H](CO)[C@@H](O)[C@H](N)[C@H]1O [Amikacin]
CLSI-Defined QC Range (S. aureus 29213; [8]): 1 to 4 µg/mL
Quality Control Range (patient sample microbes [5]): 0.5-4
MICs obtained from panel made from Master Plate (patient sample microbes [4]): 4 µg/mL
MICs obtained from 96-well Antibiotic Panel (patient sample microbes [4]): 4 µg/mL

CC[C@H]1OC(=O)[C@H](C)[C@@H](O[C@H]2C[C@@](C)(OC)[C@@H](O)[C@H](C)O2)[C@H](C)[C@@H](O[C@@H]2O[C@H](C)C[C@H](N(C)C)[C@H]2O)[C@](C)(O)C[C@@H](C)C(=O)[C@H](C)[C@@H](O)[C@]1(C)O [Erythromycin]
CLSI-Defined QC Range (E. faecalis 29212; [6]): 1 to 4 µg/mL

NC[C@H]1O[C@H](O[C@H]2[C@H](O)[C@@H](O[C@H]3O[C@H](CO)[C@@H](O)[C@H](N)[C@H]3O)[C@H](N)C[C@@H]2N)[C@H](N)C[C@@H]1O [Tobramycin]
CLSI-Defined QC Range (E. faecalis 29212; [9]): 8 to 32 µg/mL
Quality Control Range (patient sample microbes [5]): 0.25-1
MICs obtained from panel made from Master Plate (patient sample microbes [4]): 0.5 µg/mL
MICs obtained from 96-well Antibiotic Panel (patient sample microbes [4]): 1 µg/mL
